This note sets out measurements from patent publication US20250270246A1, “LINCOSAMIDES AND USES THEREOF” (President and Fellows of Harvard College, priority 2022, published 2025).

Counter-ions that a name gives are not always drawn. Like-named read-outs stand apart in the source and are kept apart here. Some results are limits rather than exact numbers.

What all share (experiment): MIC by broth microdilution (CLSI)
Assay type in all cases: cell-based
Background: In broth dilution the organism is exposed to a series of concentrations in liquid medium.

One experiment concerns E. faecium JMI-990536. The following applies: Enterococcus faecium, JMI990536, 24 h, read-out: MIC E. faecium JMI-990536. Here is the method: (§1) Minimum inhibitory concentrations (MICs) were determined by the broth microdilution method following the Clinical and Laboratory Standards Institute (CLSI) guidelines. Test organisms consisted of standard reference strains from the American Type Culture Collection (ATCC; Manassa, VA, USA) and clinical isolates obtained from JMI Laboratories Inc. (North Liberty, IA, USA), Micromyx repository (MMX; Kalamazoo, MI, USA), and Massachusetts Eye and Ear Hospital (Boston, USA). Before the start of the MIC experiment, standard and test compound stock solutions were prepared in dimethyl sulfoxide (DMSO, Aldrich D2650) at a stock concentration of 2,560 μg/mL. The compound concentration range typically employed for each experiment was 64-0.06 μg/mL (2.5% final DMSO concentration). Iboxamycin was used as a comparator in all experiments. All bacterial strains were sub-cultured on blood agar plates (tryptic soy agar with 5% sheep blood, Hardy Diagnostics) and incubated overnight at 35° C. Organisms were suspended in cation-adjusted Mueller-Hinton broth (CaMHB, BD 212322) and optical density was adjusted to 0.5 McFarland standard. Suspensions were further diluted to obtain a final inoculum of 5×10^5 CFU/mL for broth microdilution experiments. The minimum concentration of compound required to inhibit visible bacterial growth after 24 h of incubation was recorded as the MIC in μg/mL. MICs for P. aeruginosa were recorded in cation-adjusted Mueller-Hinton broth which had been pre-treated with Chelex 100 ion exchange resin according to procedures reported in Ito et al. Antimicrob Agents Chemother (2016) 60 (12), 7396-7401.

The test system of a further experiment is E. coli ΔtolC. The following applies: Escherichia coli, 24 h, read-out: MIC E. coli ΔtolC, ΔtolC; CaMHB, 24 h incubation. Here is the method: as §1
In another experiment the test system is S. aureus MMX 3035. The following applies: Staphylococcus aureus, MMX3035, 24 h, read-out: MIC S. aureus MMX 3035. Here is the method:
as §1

For experiment [1], the system named is S. aureus ATCC 29213 (HAV#001). The following applies: Staphylococcus aureus, ATCC29213, 24 h, read-out: MIC S. aureus ATCC 29213. Here is the method: as §1
A further experiment has as its system K. pneumoniae JMI-991193. The following applies: Klebsiella pneumoniae, JMI991193, 24 h, read-out: MIC K. pneumoniae JMI-991193. Here is the method: as §1
For experiment [2], the system named is E. faecalis ATCC 29212 (HAV#005). The following applies: Enterococcus faecalis, ATCC29212, 24 h, read-out: MIC E. faecalis ATCC 29212. On the procedure: as §1
The test system of a further experiment is S. aureus Clinical (cfr). The following applies: Staphylococcus aureus, 24 h, read-out: MIC S. aureus Clinical (cfr). On the procedure: as §1
A further experiment relates to E. coli lptD mutant. The following applies: Escherichia coli, 24 h, read-out: MIC E. coli lptD mutant, lptD mutant / ΔlptD mutant; CaMHB, 24 h incubation. Here is the method: as §1
For experiment [3], the system named is A. baumannii ATCC 19606 (HAV#010). The following applies: Acinetobacter baumannii, ATCC19606, 24 h, read-out: MIC A. baumannii ATCC 19606. On the procedure:
as §1

Experiment [4] has as its system E. coli ATCC 25922 (HAV#006). The following applies: Escherichia coli, ATCC25922, 24 h, read-out: MIC E. coli ATCC 25922. Here is the method:
as §1

The mark [5] stands for this setting: JMI-990536, CaMHB, 24 h incubation.
Where [6] appears, read: MMX 3035, CaMHB, 24 h incubation.
The mark [7] stands for this setting: HAV#001, ATCC 29213, CaMHB, 24 h incubation.
[8] abbreviates: JMI-991193, CaMHB, 24 h incubation.
The mark [9] stands for this setting: HAV#005, ATCC 29212, CaMHB, 24 h incubation.
Setting [10] is: Clinical (cfr), CaMHB, 24 h incubation.
Where [11] appears, read: HAV#010, ATCC 19606, CaMHB, 24 h incubation.
Setting [12] is: HAV#006, ATCC 25922, CaMHB, 24 h incubation.

Take `C#C[C@@H]1C/C=C\C[C@@H](NC(=O)[C@H]2NC[C@@H]3C[C@H](CC(C)C)CCO[C@H]32)[C@H]2O[C@H](S1)[C@H](O)[C@@H](O)[C@H]2O` [FSA1607077, (4S,5aS,8S,8aR)—N-((1R,3S,8R,9R,10R,11S,12R,Z)-3-ethynyl-10,11,12-trihydroxy-13-oxa-2-thiabicyclo[7.3.1]tridec-5-en-8-yl)-4-isobutyloctahydro-2H-oxepino[2,3-c]pyrrole-8-carboxamide formate salt]: the MIC was 2 µg/mL in the experiment with E. faecium JMI-990536; 1 µg/mL in the experiment with E. coli ΔtolC; 4 µg/mL with S. aureus MMX 3035; at most 0.125 µg/mL in [1]; 16 µg/mL in the experiment with K. pneumoniae JMI-991193; at most 0.125 µg/mL in experiment [2]. The MIC with S. aureus Clinical (cfr) amounted to 16 µg/mL; in the experiment with E. coli lptD mutant, 1 µg/mL; in experiment [3], 8 µg/mL; in [4], 4 µg/mL.
Take `CC(C)C[C@@H]1CCO[C@@H]2[C@H](CN[C@@H]2C(=O)N[C@@H]2C/C=C\C[C@@H](c3c[nH]nn3)S[C@H]3O[C@H]2[C@H](O)[C@H](O)[C@H]3O)C1` [FSA1607090, (4S,5aS,8S,8aR)-4-isobutyl-N-((1R,3S,8R,9R,10R,11S,12R,Z)-10,11,12-trihydroxy-3-(1H-1,2,3-triazol-4-yl)-13-oxa-2-thiabicyclo[7.3.1]tridec-5-en-8-yl) octahydro-2H-oxepino[2,3-c]pyrrole-8-carboxamide formate salt]: the MIC in the experiment on E. faecium JMI-990536 (setting [5]) is 16 µg/mL; with E. coli ΔtolC it was 4 µg/mL; in the experiment on S. aureus MMX 3035 (setting [6]), 32 µg/mL; in experiment [1] (setting [7]), 8 µg/mL; with K. pneumoniae JMI-991193 (setting [8]), above 64 µg/mL; in experiment [2] (setting [9]) it was 32 µg/mL. In addition, the MIC in the experiment on S. aureus Clinical (cfr) (setting [10]) is above 64 µg/mL; with E. coli lptD mutant, 8 µg/mL; in experiment [3] (setting [11]), above 64 µg/mL; in [4] (setting [12]) it was above 64 µg/mL.
For `CC(C)C[C@@H]1CCO[C@@H]2[C@H](CN[C@@H]2C(=O)N[C@@H]2C/C=C/[C@H](O)CS[C@H]3O[C@H]2[C@H](O)[C@H](O)[C@H]3O)C1` [FSA1608009, (4S,5aS,8S,8aR)-4-isobutyl-N-((1R,4S,8R,9R,10R,11S,12R,E)-4,10,11,12-tetrahydroxy-13-oxa-2-thiabicyclo[7.3.1]tridec-5-en-8-yl) octahydro-2H-oxepino[2,3-c]pyrrole-8-carboxamide formate salt], the MIC in the experiment with E. faecium JMI-990536 (setting [5]) was above 64 µg/mL; in the experiment with E. coli ΔtolC it was above 64 µg/mL; with S. aureus MMX 3035 (setting [6]), above 64 µg/mL; in [1] (setting [7]) it was 32 µg/mL; in the experiment on K. pneumoniae JMI-991193 (setting [8]), above 64 µg/mL; in [2] (setting [9]), above 64 µg/mL. For the same compound, the MIC (with S. aureus Clinical (cfr) (setting [10]); in the experiment with E. coli lptD mutant; in experiment [3] (setting [11]); in [4] (setting [12])) was above 64 µg/mL each time.
Turning to `CC(C)C[C@@H]1CCO[C@@H]2[C@H](CN[C@@H]2C(=O)N[C@@H]2C/C=C\C[C@@H](c3cn(-c4ccc(F)cc4)nn3)S[C@H]3O[C@H]2[C@H](O)[C@H](O)[C@H]3O)C1` [FSA1608021, (4S,5aS,8S,8aR)—N-((1R,3S,8R,9R,10R,11S,12R,Z)-3-(1-(4-fluorophenyl)-1H-1,2,3-triazol-4-yl)-10,11,12-trihydroxy-13-oxa-2-thiabicyclo[7.3.1]tridec-5-en-8-yl)-4-isobutyloctahydro-2H-oxepino[2,3-c]pyrrole-8-carboxamide formate salt], the MIC turned out to be 0.5 µg/mL in the experiment with E. faecium JMI-990536; 1 µg/mL in the experiment with E. coli ΔtolC; 2 µg/mL in the experiment on S. aureus MMX 3035; 0.5 µg/mL in experiment [1]; 4 µg/mL in the experiment on K. pneumoniae JMI-991193; 0.5 µg/mL in [2]. The MIC was found to be 4 µg/mL in the experiment on S. aureus Clinical (cfr), 0.25 µg/mL with E. coli lptD mutant, 4 µg/mL in experiment [3] and 1 µg/mL in experiment [4].
As to `CC(C)C[C@@H]1CCO[C@@H]2[C@H](CN[C@@H]2C(=O)N[C@H]2[C@H]3O[C@H](S[C@H](c4cn(-c5cc(F)c(F)cc5F)nn4)C/C=C\[C@H]2C)[C@H](O)[C@@H](O)[C@H]3O)C1` [FSA1609051, (4S,5aS,8S,8aR)-4-isobutyl-N-((1R,3S,7R,8R,9R,10R,11S,12R,Z)-10,11,12-trihydroxy-7-methyl-3-(1-(2,4,5-trifluorophenyl)-1H-1,2,3-triazol-4-yl)-13-oxa-2-thiabicyclo[7.3.1]tridec-5-en-8-yl) octahydro-2H-oxepino[2,3-c]pyrrole-8-carboxamide formate salt], the MIC in the experiment on E. faecium JMI-990536 (setting [5]) amounted to 0.5 µg/mL; in the experiment on E. coli ΔtolC it was 0.25 µg/mL; with S. aureus MMX 3035 (setting [6]), 0.5 µg/mL; in experiment [1] (setting [7]) it was 0.25 µg/mL; in the experiment with K. pneumoniae JMI-991193 (setting [8]) it was 8 µg/mL; in experiment [2] (setting [9]), 0.25 µg/mL. The MIC with S. aureus Clinical (cfr) (setting [10]) was 0.5 µg/mL; with E. coli lptD mutant it was 0.5 µg/mL; in [3] (setting [11]), 2 µg/mL; in experiment [4] (setting [12]), 4 µg/mL.
Turning to `CC(C)C[C@@H]1CCO[C@@H]2[C@H](CN[C@@H]2C(=O)N[C@H]2[C@H]3O[C@H](S[C@H](c4cn(-c5ccc(F)cc5F)nn4)C/C=C\[C@H]2C)[C@H](O)[C@@H](O)[C@H]3O)C1` [FSA1609052, (4S,5aS,8S,8aR)—N-((1R,3S,7R,8R,9R,10R,11S,12R,Z)-3-(1-(2,4-difluorophenyl)-1H-1,2,3-triazol-4-yl)-10,11,12-trihydroxy-7-methyl-13-oxa-2-thiabicyclo[7.3.1]tridec-5-en-8-yl)-4-isobutyloctahydro-2H-oxepino[2,3-c]pyrrole-8-carboxamide formate salt], the MIC worked out at 0.5 µg/mL with E. faecium JMI-990536; 0.125 µg/mL with E. coli ΔtolC; 0.5 µg/mL in the experiment on S. aureus MMX 3035; 0.25 µg/mL in [1]; 4 µg/mL in the experiment on K. pneumoniae JMI-991193; 0.25 µg/mL in [2]. The MIC in the experiment with S. aureus Clinical (cfr) was 0.5 µg/mL; with E. coli lptD mutant it was 0.125 µg/mL; in [3] it was 1 µg/mL; in experiment [4], 2 µg/mL.
